Test results published in patent publication US20190290759A1, “COMBINATION OF HDAC INHIBITOR AND ANTI-PD-L1 ANTIBODY FOR TREATMENT OF OVARIAN CANCER” (Syndax Pharmaceuticals, Inc., priority 2015, published 2019).

Experiments:
[1] = system: PD-L1 on DU 145 carcinoma cells; experiment: Cell-surface PD-L1 expression by flow cytometry, DU 145; type: cell-based, human; conditions: DU 145 (prostate), vorinostat 3 μM 5 h daily x4 days or entinostat 500 nM 72 h; for PD-L1 % Positive: DMSO controls 76.3 / 81.4; for PD-L1 MFI: DMSO controls 200 / 226
[2] = system: MICA/B on DU 145 carcinoma cells; experiment: Cell-surface MIC-A/B expression by flow cytometry, DU 145; type: cell-based, human; conditions: DU 145 (prostate); vorinostat 3 μM 5 h daily x4 days or entinostat 500 nM 72 h; DMSO controls 42.9 / 58.9
[3] = system: HLA-ABC on DU 145 carcinoma cells; experiment: Cell-surface HLA-ABC expression by flow cytometry, DU 145; type: cell-based, human; conditions: DU 145 (prostate), vorinostat 3 μM 5 h daily x4 days or entinostat 500 nM 72 h; for HLA-ABC % Positive: DMSO controls 100 / 100; for HLA-ABC MFI: DMSO controls 200 / 226
[4] = system: PD-L1 on PC-3 carcinoma cells; experiment: Cell-surface PD-L1 expression by flow cytometry, PC-3; type: cell-based, human; conditions: PC-3 (prostate), vorinostat 3 μM 5 h daily x4 days or entinostat 500 nM 72 h; for PD-L1 % Positive: DMSO controls 74.1 / 55.8; for PD-L1 MFI: DMSO controls 207 / 146
[5] = system: MICA/B on PC-3 carcinoma cells; experiment: Cell-surface MIC-A/B expression by flow cytometry, PC-3; type: cell-based, human; conditions: PC-3 (prostate); vorinostat 3 μM 5 h daily x4 days or entinostat 500 nM 72 h; DMSO controls 33.2 / 43.7
[6] = system: HLA-ABC on PC-3 carcinoma cells; experiment: Cell-surface HLA-ABC expression by flow cytometry, PC-3; type: cell-based, human; conditions: PC-3 (prostate), vorinostat 3 μM 5 h daily x4 days or entinostat 500 nM 72 h; for HLA-ABC % Positive: DMSO controls 99.8 / 99.9; for HLA-ABC MFI: DMSO controls 699 / 801
[7] = system: PD-L1 on NCI-H460 carcinoma cells; experiment: Cell-surface PD-L1 expression by flow cytometry, NCI-H460; type: cell-based, human; conditions: NCI-H460 (lung), vorinostat 3 μM 5 h daily x4 days or entinostat 500 nM 72 h; for PD-L1 % Positive: DMSO controls 68.0 / 89.5; for PD-L1 MFI: DMSO controls 199 / 492
[8] = system: MICA/B on NCI-H460 carcinoma cells; experiment: Cell-surface MIC-A/B expression by flow cytometry, NCI-H460; type: cell-based, human; conditions: NCI-H460 (lung); vorinostat 3 μM 5 h daily x4 days or entinostat 500 nM 72 h; DMSO controls 4.4 / 20.3
[9] = system: HLA-ABC on NCI-H460 carcinoma cells; experiment: Cell-surface HLA-ABC expression by flow cytometry, NCI-H460; type: cell-based, human; conditions: NCI-H460 (lung), vorinostat 3 μM 5 h daily x4 days or entinostat 500 nM 72 h; for HLA-ABC % Positive: DMSO controls 86.6 / 99.2; for HLA-ABC MFI: DMSO controls 371 / 822
[10] = system: MICA/B on NCI-H441 carcinoma cells; experiment: Cell-surface MIC-A/B expression by flow cytometry, NCI-H441; type: cell-based, human; conditions: NCI-H441 (lung); vorinostat 3 μM 5 h daily x4 days or entinostat 500 nM 72 h; DMSO controls 23.5 / 16.7
[11] = system: HLA-ABC on NCI-H441 carcinoma cells; experiment: Cell-surface HLA-ABC expression by flow cytometry, NCI-H441; type: cell-based, human; conditions: NCI-H441 (lung), vorinostat 3 μM 5 h daily x4 days or entinostat 500 nM 72 h; for HLA-ABC % Positive: DMSO controls 99.9 / 99.9; for HLA-ABC MFI: DMSO controls 1182 / 1232
[12] = system: PD-L1 on AsPC-1 carcinoma cells; experiment: Cell-surface PD-L1 expression by flow cytometry, AsPC-1; type: cell-based, human; conditions: AsPC-1 (pancreas), vorinostat 3 μM 5 h daily x4 days or entinostat 500 nM 72 h; for PD-L1 % Positive: DMSO controls 1.4 / 1.9; for PD-L1 MFI: DMSO controls 87.5 / 91.4
[13] = system: MICA/B on AsPC-1 carcinoma cells; experiment: Cell-surface MIC-A/B expression by flow cytometry, AsPC-1; type: cell-based, human; conditions: AsPC-1 (pancreas); vorinostat 3 μM 5 h daily x4 days or entinostat 500 nM 72 h; DMSO controls 1.9 / 1.4
[14] = system: HLA-ABC on AsPC-1 carcinoma cells; experiment: Cell-surface HLA-ABC expression by flow cytometry, AsPC-1; type: cell-based, human; conditions: AsPC-1 (pancreas), vorinostat 3 μM 5 h daily x4 days or entinostat 500 nM 72 h; for HLA-ABC % Positive: DMSO controls 98.5 / 99.1; for HLA-ABC MFI: DMSO controls 625 / 670
[15] = system: human lung and prostate carcinoma cells (DU 145, PC-3, NCI-H460, NCI-H441); experiment: Avelumab-mediated ADCC, 4 h 111In release assay with NK effectors; type: cell-based; conditions: cells pre-exposed to vorinostat 3 μM (5 h daily x4 days) or entinostat 500 nM (72 h) vs DMSO; avelumab 2 ng/mL; NK effectors E:T=30:1
Method: (§1) NK lysis was performed in the presence of avelumab or isotype control (2 ng/mL).
(§2) Results are presented as mean±S.E.M. from 3 replicate wells, and are representative of 2-4 independent experiments. […] For CD16 blocking, NK cells were pretreated for 2 h with anti-CD16 blocking antibody prior to being used as effectors. Results are presented as mean±S.E.M. from 3 replicate wells, and are representative of 2-4 independent experiments.

[16] = system: PD-L1 in lung and prostate carcinoma xenografts (NCI-H460, PC-3, DU 145); experiment: Human xenografts, PD-L1 immunofluorescence; type: in vivo, nu/nu mice; conditions: vorinostat 150 mg/kg p.o. 4 daily doses, excised 24 h after last dose; entinostat 20 mg/kg p.o. single dose 72 h before excision; vs DMSO
Method: Female nu/nu mice were implanted with NCI-H460 (lung) or PC-3 (prostate) carcinoma cells. […] Frozen specimens were examined for cell-surface expression of PD-L1 by immunofluorescence using antihuman PD-L1 (clone SP142) and goat anti-rabbit AF594, and counterstained with DAPI-containing mounting medium.
Tumors were excised 24 h after the last dose. […] Frozen sections were examined for cell-surface expression of human PD-L1 by immunofluorescence. Confocal images are shown at 20× magnification and are representative of 3 animals/treatment. Relative PD-L1 expression levels were calculated using ImageJ software by normalizing the intensity values to their respective DMSO treated controls.

[17] = in vivo; cited from earlier work
histone acetylation = conditions: following the administration of entinostat; cited from earlier work
[18] = system: host immune suppressor cells; conditions: preclinical models; cited from earlier work
[19] = system: PD-L1 on NCI-H441 carcinoma cells; experiment: Cell-surface PD-L1 expression by flow cytometry, NCI-H441; conditions: NCI-H441 (lung); vorinostat 3 μM 5 h daily x4 days or entinostat 500 nM 72 h; DMSO controls 958 / 1031
in vitro = conditions: human, PC-3 prostate carcinoma cells
[20] = system: NCI-H460 lung carcinoma cells; experiment: Avelumab-mediated NK lysis with CD16 blocking; type: cell-based, human; conditions: NK cells pretreated 2 h with anti-CD16 blocking antibody 12 μg/mL; targets exposed to vorinostat or DMSO; avelumab 2 ng/mL
Method: as §1
NK cells were pretreated for 2 h with anti-CD16 blocking antibody (12 μg/mL) prior to being used as effectors.
as §2

[21] = system: human carcinoma cell lines; conditions: cited from earlier work
[22] = system: whole PBMCs or dendritic cells isolated from PBMCs; conditions: cited from earlier work

| MIC-A/B % Positive [2] [%] | MIC-A/B % Positive [5] [%] | MIC-A/B % Positive [8] [%] | MIC-A/B % Positive [10] [%] | Compound | PD-L1 % Positive [1] [%] | PD-L1 MFI [1] | HLA-ABC % Positive [3] [%] | HLA-ABC MFI [3] | PD-L1 % Positive [4] [%] | PD-L1 MFI [4] | HLA-ABC % Positive [6] [%] | HLA-ABC MFI [6] | PD-L1 % Positive [7] [%] | PD-L1 MFI [7] | HLA-ABC % Positive [9] [%] | HLA-ABC MFI [9] | HLA-ABC % Positive [11] [%] | HLA-ABC MFI [11] | PD-L1 % Positive [12] [%] | PD-L1 MFI [12] | further results |
| --- | --- | --- | --- | --- | --- | --- | --- | --- | --- | --- | --- | --- | --- | --- | --- | --- | --- | --- | --- | --- | --- |
| 94.3 | 91.5 | 69.8 | 46.2 | Nc1ccccc1NC(=O)c1ccc(CNC(=O)OCc2cccnc2)cc1 [Entinostat, N-(2-aminophenyl)-4-[N-(pyridine-3-yl)methoxycarbonylamino-methyl]-benzamide] | 99.5 | 705 | 100 | 705 | 86.4 | 240 | 100 | 1144 | 90.2 | 507 | 94.3 | 547 | 99.9 | 1375 | 9.9 | 126 | MIC-A/B % Positive [13]: 6.5%; HLA-ABC % Positive [14]: 99.0%; HLA-ABC MFI [14]: 126; Sensitivity of carcinoma cells to ADCC mediated by avelumab (NK-cell lysis) [15]: significantly increased sensitivity; PD-L1 expression in vivo in xenografts (immunofluorescence) [16]: enhance PD-L1 expression; half-life [17]: about 100 hours; persistence of changes in histone acetylation (histone acetylation): persist for several weeks; effect on host immune suppressor cells [18]: reduce the number of, and inhibit the function of, host immune suppressor cells; PD-L1 MFI [19]: 1027 |
| 93.9 | 58.1 | 70.6 | 21.1 | O=C(CCCCCCC(=O)Nc1ccccc1)NO [Vorinostat] | 96.0 | 354 | 100 | 354 | 83.3 | 251 | 99.7 | 816 | 86.9 | 278 | 97.1 | 608 | 99.9 | 1284 | 1.4 | 90.4 | MIC-A/B % Positive [13]: 0.8%; HLA-ABC % Positive [14]: 99.2%; HLA-ABC MFI [14]: 806; PD-L1 expression in vivo in xenografts (immunofluorescence) [16]: enhance PD-L1 expression; viability (in vitro): 99%; PD-L1 MFI [19]: 1053 |
|  |  |  |  | avelumab: fully human anti-PD-L1 IgG1 antibody |  |  |  |  |  |  |  |  |  |  |  |  |  |  |  |  | Avelumab-mediated lysis of carcinoma cells after CD16 neutralization [20]: decreased by CD16 neutralization; human carcinoma cell lines in which ADCC was induced ([21]; PBMCs as effectors): 8 out of 18; cell lines with augmented lysis after IFN-γ pretreatment ([21]; tumor cell lines pretreated with IFN-γ): 4 out of 10; lysis of PBMCs or dendritic cells in NK-mediated ADCC assays [22]: Little or no lysis |
